Reference: EP4603105A1, “PHARMACEUTICAL COMPOSITION CONTAINING CYCLIC COMPOUND HAVING SELECTIVE KRAS INHIBITORY EFFECT AGAINST HRAS AND NRAS” (CHUGAI SEIYAKU KABUSHIKI KAISHA, priority 2022, dated 2024)
Like-named read-outs stand apart in the source and are kept apart here.

Key:
[1] = molecular target: GDP-bound NRAS wild-type protein (Homo sapiens, UniProt P01111); assay: Binding to NRAS by surface plasmon resonance (SPR), KD and KD ratio to KRAS
In short: (§1)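 Running buffer contained 10 µM GDP and 10 mM MgCl2 to keep RAS in the GDP state, with 4% DMSO at pH 7.4. Compounds were flowed at 100 µL/min in 75 s steps of rising concentration over captured biotin-Avi RAS at 30°C. Sensorgrams were fitted 1:1 for KD.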

[2] = tested on: human lung cancer strain NCI-H441; assay: NCI-H441 cell proliferation inhibitory activity (CellTiter-Glo, 4 days); type: cell-based; details: read-out: NCl-H441 IC50
In short: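 Step one: dispense the test compound in serial DMSO dilutions. Step three: add the reagent and measure […].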

HRAS wild-type protein = HRAS wild-type protein (Homo sapiens, UniProt P01112); assay: Binding to HRAS by surface plasmon resonance (SPR), KD and KD ratio to KRAS
In short: as §1

[3] = molecular target: GDP-bound KRAS wild-type protein (Homo sapiens, UniProt P01116); assay: Binding to KRAS by surface plasmon resonance (SPR), dissociation constant KD
In short: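 Affinity is measured by surface plasmon resonance at 30°C against captured, GDP-loaded RAS carrying a biotinylated Avi tag. Compounds are titrated by single-cycle kinetics, and KD comes from a 1:1 fit.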

[4] = ratio of KD for GDP-bound NRAS wild-type protein to KD for KRAS
[5] = ratio of KD for HRAS wild-type protein to KD for KRAS

Chain of GDP-bound KRAS wild-type protein (P01116 1-188 isoform P01116-2): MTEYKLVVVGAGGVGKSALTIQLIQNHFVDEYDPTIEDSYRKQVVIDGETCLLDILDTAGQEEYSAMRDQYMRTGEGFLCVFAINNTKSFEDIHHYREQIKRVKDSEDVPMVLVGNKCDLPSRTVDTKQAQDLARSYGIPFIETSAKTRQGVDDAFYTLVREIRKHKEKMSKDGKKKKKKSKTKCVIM
Chain of HRAS wild-type protein (P01112 whole entry): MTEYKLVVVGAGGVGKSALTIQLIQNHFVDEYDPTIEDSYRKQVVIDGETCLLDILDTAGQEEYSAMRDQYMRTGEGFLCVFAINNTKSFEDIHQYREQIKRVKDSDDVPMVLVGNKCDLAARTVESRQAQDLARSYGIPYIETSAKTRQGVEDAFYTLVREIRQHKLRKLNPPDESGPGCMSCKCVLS
Chain of GDP-bound NRAS wild-type protein (P01111 whole entry): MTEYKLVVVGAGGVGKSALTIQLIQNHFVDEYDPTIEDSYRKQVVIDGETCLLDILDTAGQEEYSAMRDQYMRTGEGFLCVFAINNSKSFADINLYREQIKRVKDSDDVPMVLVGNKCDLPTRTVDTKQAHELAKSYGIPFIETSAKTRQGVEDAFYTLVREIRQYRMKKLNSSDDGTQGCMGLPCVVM

SMILES	NRAS /KRAS ([1]; ratio of KD with respect to GDP-bound NRAS wild-type protein to KD with respect to KRAS)	IC50 ([2]; 50% proliferation inhibitory concentration, four days) [nM]	HRAS /KRAS (HRAS wild-type protein; ratio of KD with respect to HRAS wild-type protein to KD with respect to KRAS)	Kd ([3]; Single Cycle Kinetics, 1:1 binding model) [nM]	NRAS /KRAS [1, 4]	IC50 ([2]; NCI-H441 cells, 4 days) [nM]	HRAS /KRAS (HRAS wild-type protein; [5])	Kd ([3]; Single Cycle Kinetics) [nM]	Kd ([3]; 1:1 binding model) [nM]
CCO[C@@H]1C[C@H]2C(=O)NC3(CCCC3)C(=O)N(C)[C@@H](C3CCCC3)C(=O)N(C)[C@H](C(=O)N3CCOCC3)CC(=O)N(C)[C@@H](CC)C(=O)N[C@@H]([C@@H](C)CC)C(=O)N(C)CC(=O)N(C)[C@H]3CC[C@@H](C)CN(C3=O)[C@@H](Cc3ccc(C(F)(F)F)cc3)C(=O)N(C)CC(=O)N[C@@H](CCc3ccc(C(F)(F)F)c(Cl)c3)C(=O)N2C1 [PP1377]	B (a compound having 3 or more and less than 10 is denoted as B)	5.8	B (a compound having 3 or more and less than 10 is denoted as B)	0.087					
C=CC[C@H]1C(=O)N(C)[C@H](C(=O)N(C)C)CC(=O)N(C)[C@@H](CCC)C(=O)N[C@@H]([C@@H](C)CC)C(=O)N(C)CC(=O)N(C)[C@H]2C/C=C\CCN(C2=O)[C@@H](Cc2ccc(C(F)(F)F)cc2)C(=O)N(C)CC(=O)N[C@@H](CCc2cc(F)c(C(F)(F)F)c(F)c2)C(=O)N2C[C@H](OCC)C[C@H]2C(=O)N(C)C2(CCC2)C(=O)N1C [PP3336]					A (a compound having 10 or more and less than 20 is denoted as A)	66.1	A (a compound having 10 or more and less than 20 is denoted as A)	1.5	
CCC[C@H]1C(=O)N[C@@H](CC(C)C)C(=O)N(C2CC2)CC(=O)N(C)[C@H]2C/C=C\CCN(C2=O)[C@@H](Cc2ccc(C)cc2)C(=O)N(C)CC(=O)N[C@@H](CCc2ccc(C(F)(F)F)c(OC)c2)C(=O)N2C[C@H](OCC)C[C@H]2C(=O)NC2(CC(C)(C)C2)C(=O)N(C)[C@@H](C2CCCC2)C(=O)N(C)[C@H](C(=O)N(C)C)CC(=O)N1C [PP2510]					A (a compound having 10 or more and less than 20 is denoted as A)	180	B (a compound having 3 or more and less than 10 is denoted as B)		3.9
CC[C@H](C)[C@@H]1NC(=O)[C@H](COC)N(C)C(=O)C[C@@H](C(=O)N(C)C)N(C)C(=O)[C@H](C2CCCCC2)N(C)C(=O)C2(CC(C)(C)C2)NC(=O)[C@@H]2C[C@@H](OC(C)C)CN2C(=O)[C@H](CCc2ccc(Cl)c(Cl)c2)NC(=O)CN(C)C(=O)[C@H](Cc2ccc(C(F)(F)F)cc2)N2CC/C=C\C[C@@H](C2=O)N(C)C(=O)CN(C)C1=O [PP2662]					AA (a compound having 20 or more is denoted as AA)	13.1	A (a compound having 10 or more and less than 20 is denoted as A)		0.29
CCC[C@H]1C(=O)N[C@@H]([C@@H](C)CC)C(=O)N(C2CC2)CC(=O)N(C)[C@H]2C/C(F)=C\CCN(C2=O)[C@@H](Cc2ccc(C)cc2)C(=O)N(C)CC(=O)N[C@@H](CCc2ccc(C(F)(F)F)c(OC)c2)C(=O)N2C[C@H](OCC)C[C@H]2C(=O)N(C)C2(CCC2)C(=O)N(C)[C@@H](C2CCCC2)C(=O)N(C)[C@H](C(=O)N(C)C)CC(=O)N1C [PP3525]					B (a compound having 3 or more and less than 10 is denoted as B)	3.4	B (a compound having 3 or more and less than 10 is denoted as B)	0.22	
CCCO[C@@H]1C[C@H]2C(=O)NC3(CC(C)(C)C3)C(=O)N(C)[C@@H](C3CCCC3)C(=O)N(C)[C@H](C(=O)N(C)CC)CC(=O)N[C@@H](COCC)C(=O)N[C@@H]([C@@H](C)CC)C(=O)N3CCC[C@H]3C(=O)N(C)[C@H]3C/C=C\CCN(C3=O)[C@@H](Cc3ccc(C)cc3)C(=O)N(C)CC(=O)N[C@@H](CCc3cc(F)c(C(F)(F)F)c(F)c3)C(=O)N2C1 [PP3423]					A (a compound having 10 or more and less than 20 is denoted as A)	81.2	A (a compound having 10 or more and less than 20 is denoted as A)	1.8	
